Assays:
[1] = Selectivity index, ratio of IC50 for cytotoxicity against human HDF cells to IC50 for cytotoxicity against human U-87 MG cells; format: toxicity, cell-based; settings: HDF cells versus U-87 MG cells, read-out: Ratio IC50
[2] = Selectivity index, ratio of IC50 for cytotoxicity against human HDF cells to IC50 for cytotoxicity against human SK-OV-3 cells
SK-OV-3 = assay: Antiproliferative activity against human SK-OV-3 cells assessed as reduction in cell growth incubated for 72 hrs by SRB assay; format: functional, cell-based; settings: SK-OV-3, 72 h
[3] = Selectivity index, ratio of IC50 for cytotoxicity against human HDF cells to IC50 for cytotoxicity against human PC-3 cells; format: toxicity, cell-based; settings: HDF cells versus PC-3 cells, read-out: Ratio IC50
A549 = assay: Antiproliferative activity against human A549 cells assessed as reduction in cell growth incubated for 72 hrs by SRB assay; format: functional, cell-based; settings: A549, 72 h
[4] = Selectivity index, ratio of IC50 for cytotoxicity against human HDF cells to IC50 for cytotoxicity against human SK-BR-3 cells; format: toxicity, cell-based; settings: HDF cells versus SK-BR-3 cells, read-out: Ratio IC50
[5] = Octanol/water partition coefficient, logP of compound incubated for 1 hr by UV-visible spectrophotometry; format: physicochemical
U-87 MG = assay: Antiproliferative activity against human U-87 MG cells assessed as reduction in cell growth incubated for 72 hrs by SRB assay; format: functional, cell-based, U-87MG ATCC
[6] = Selectivity index, ratio of IC50 for cytotoxicity against human HDF cells to IC50 for cytotoxicity against human A549 cells; format: toxicity, cell-based; settings: HDF cells versus A549 cells, read-out: Ratio IC50
PC-3 = assay: Antiproliferative activity against human PC-3 cells assessed as reduction in cell growth incubated for 72 hrs by SRB assay; format: functional, cell-based; settings: PC-3, 72 h
[7] = Cytotoxicity against human HDF cells assessed as reduction in cell growth incubated for 72 hrs by SRB assay; format: cell-based; settings: HDFa
SK-BR-3 = assay: Antiproliferative activity against human SK-BR-3 cells assessed as reduction in cell growth incubated for 72 hrs by SRB assay; format: functional, cell-based; settings: SK-BR-3, 72 h
[8] = Binding affinity to HSP90 (unknown origin) assessed as dissociation constant by isothermal titration calorimetry; design: species or system Homo sapiens
[9] = Binding affinity to yeast HSP90 assessed as dissociation constant by isothermal titration calorimetry; design: species or system Saccharomyces cerevisiae
[10] = Binding affinity to HSP90 (unknown origin); design: species or system Homo sapiens

## CO[C@H]1/C=C\C=C(/C)C(=O)NC2=CC(=O)C(NC3CCN(C(=O)OC(C)(C)C)CC3)=C(C[C@@H](C)C[C@H](OC)[C@H](O)[C@@H](C)/C=C(\C)[C@@H]1OC(N)=O)C2=O
[1]
  selectivity ratio: 30.4
[2]
  Ratio IC50: 30.7
SK-OV-3
  IC50: 83 nM
[3]
  selectivity ratio: 13.4
A549
  IC50: 77 nM
[4]
  selectivity ratio: 33.1
[5]
  logP at 1 h: 3.11
U-87 MG
  IC50: 84 nM
[6]
  selectivity ratio: 33.1
PC-3
  IC50: 190 nM
[7]
  IC50: 2550 nM
SK-BR-3
  IC50: 77 nM
[8]
  Kd: 820 nM

## CCOC(=O)C1CCC(CNC2=C3C[C@@H](C)C[C@H](OC)[C@H](O)[C@@H](C)/C=C(\C)[C@H](OC(N)=O)[C@@H](OC)/C=C\C=C(/C)C(=O)NC(=CC2=O)C3=O)CC1 (some centres undefined)
[1]
  selectivity ratio: 3.47
[2]
  Ratio IC50: 3.91
SK-OV-3
  IC50: 550 nM
[3]
  selectivity ratio: 3.21
A549
  IC50: 590 nM
[4]
  selectivity ratio: 3.64
[5]
  logP at 1 h: 2.9
U-87 MG
  IC50: 620 nM
[6]
  selectivity ratio: 3.64
PC-3
  IC50: 570 nM
[7]
  IC50: 2150 nM
SK-BR-3
  IC50: 590 nM
[8]
  Kd: 900 nM

## COC1=C2C[C@@H](C)C[C@H](OC)[C@H](O)[C@@H](C)/C=C(\C)[C@H](OC(N)=O)[C@@H](OC)/C=C\C=C(/C)C(=O)NC(=CC1=O)C2=O [GELDANAMYCIN]
[1]
  selectivity ratio: 2.62
[2]
  Ratio IC50: 2.27
SK-OV-3
  IC50: 940 nM
[3]
  selectivity ratio: 2.92
A549
  IC50: 990 nM
[4]
  selectivity ratio: 2.45
U-87 MG
  IC50: 810 nM
[6]
  selectivity ratio: 2.15
PC-3
  IC50: 730 nM
[9]
  Kd: 1220 nM
[7]
  IC50: 2130 nM
[10]
  Kd: 10500 nM
SK-BR-3
  IC50: 870 nM

## C=CCNC1=C2C[C@@H](C)C[C@H](OC)[C@H](O)[C@@H](C)/C=C(\C)[C@H](OC(N)=O)[C@@H](OC)/C=C\C=C(/C)C(=O)NC(=CC1=O)C2=O [TANESPIMYCIN]
[1]
  selectivity ratio: 51
SK-OV-3
  IC50: 220 nM
A549
  IC50: > 10000 nM
[4]
  selectivity ratio: 49
U-87 MG
  IC50: > 10000 nM
[6]
  selectivity ratio: 52
PC-3
  IC50: 62 nM
[7]
  IC50: 1200 nM
[10]
  Kd: 2480 nM
SK-BR-3
  IC50: 38 nM
